This is an account of results in patent publication US20210260051A1, “COMBINATION OF EZH2 INHIBITOR AND CHECKPOINT THERAPY FOR THE TREATMENT OF CANCER” (Board of Regents, The University of Texas System, priority 2018, published 2021).

Molecules are shown by their SMILES.

Data set [1] relates to murine inducible regulatory T cell (iTreg) differentiation. Briefly: in vitro differentiation of murine naïve CD4 T cells into inducible regulatory T cells with EZH2 inhibitors. The class given is cell-based, mouse. The note with it: compared with the other EZH2 inhibitors; FIG. 4A. The text has this: FIGS. 4A-B: (FIG. 4A) Percentages of inducible regulatory T cells following in vitro differentiation of murine naïve CD4 T cells into regulatory T cells in the presence and absence of various EZH2 inhibitors. (FIG. 4B) Representative counts of viable cells in culture following treatment with EZH2 inhibitors. Data is representative of three independent experiments. One-way ANOVA was used to determine significance between the groups. **p<0.01.
To investigate whether the data observed in the FoxP3^creEZH2^fl/fl mouse model could be recapitulated by pharmacological inhibition of EZH2 in T cells, the effect of different EZH2 inhibitors on regulatory T cell differentiation was compared. CPI-1205 was compared with commercially available EZH2 inhibitors.
In vitro T cell assays. Human peripheral regulatory T cells were isolated from peripheral blood mononuclear cells by enriching for CD4^+CD127^low CD25^+ cells using the EasySep Human Regulatory T Cell Isolation Kit (STEMCELL Technologies, Cambridge, Mass.). For mouse in vitro regulatory T cell differentiation, CD4^+CD25^low CD44^low CD62L^hinaïve splenic T cells were isolated from C57BL/6 mice using BD FACSAria (BD Biosciences, San Jose, Calif.). The cells were then differentiated in the presence of recombinant murine IL-2 (R&D, 402-ML), tumor growth factor-β (TGF-β, R&D 7666-MB), CPI-1205 or dimethyl sulfoxide (DMSO) and cultured for 6 days.

The test system of data set [2] is Nalm-6 target tumor cells. Briefly: T cell cytotoxicity assay. It is filed as cell-based, human. The note with it: in vitro. The protocol: T cell cytotoxicity assay was carried out using activated effector T cells (isolated with EasySep Human Naïve CD4^+ T Cell Isolation Kit and EasySep Human CD8^+ T Cell Enrichment Kit; STEMCELL Technologies). Purified naïve CD4 and total CD8 T cells were pre-activated with plate-bound anti-CD3/soluble anti-CD28 for 6 days in the presence or absence of CPI-1205. Activated T cells were then washed and challenged with Nalm-6 target tumor cells, then labeled with CellTrace violet to enable their subsequent discrimination from effector cells. The T cell:tumor cell co-cultures were conducted at different effector:target (E:T) ratios, in the presence of the blinatumomab antibody (10 ng/ml) and CPI-1205 for 20 hours as previously described (3). Target cell death was determined by summing the percentage of apoptotic (Annexin V^+) and dead or dying (7AAD+) target (CellTrace violet^+) cells after overnight culture.

The subject of a further data set is MB49 tumor. Description: MB49 tumor-bearing Rag1-/- mice. It is filed as in vivo, mouse. Conditions: compared with the untreated group. An excerpt: FIGS. 3A-3F: Blocking expression of EZH2 mediated by anti-CTLA-4 using CPI-1205 increases the effectiveness of anti-CTLA-4 therapy. Tumor growth (FIG. 3A), survival (FIG. 3B) and percentages of intra-tumoral CD4^+CD25^+FoxP3^+ regulatory T cells, CD4^+ICOS^+T-bet^+ and CD8^+IFNγ^+ cells (FIG. 3C) in MB49 tumor-bearing mice treated with vehicle, anti CTLA-4, CPI-1205, or the combination. Tumor growth (FIG. 3D) and percentages of CD4^+IFNγ^+ cells and CD8^+TNFα^+ cells in the lymph nodes (LN) (FIG. 3E) of MB49 tumor-bearing Ezh2^fl/+ and FoxP3^CreEzh2^fl/fl mice treated with anti-CTLA-4 on days 7 and 9. (FIG. 3F) Tumor growth and survival of MB49 tumor-bearing Rag-1^−/− mice treated with vehicle or CPI-1205. Data are representative of three independent experiments (n=10 in each group; one-way ANOVA was used to determine significance between the groups. **p<0.01).
To determine whether the anti-tumoral effect of combination therapy is exclusively due to effector immune response or is an additive effect of CPI-1205 on tumor cells, Rag 1^−/− C57BL/6 mice were used, which have no mature lymphocyte population. MB49 tumor-bearing Ragl^−/− mice were treated with CPI-1205.
Mice. C57BL/6 (5-7 weeks) mice were purchased from the National Cancer Institute (Frederick, Md.). […]

As to `COc1cc(C)[nH]c(=O)c1CNC(=O)c1c(C)n([C@H](C)C2CCN(CC(F)(F)F)CC2)c2ccccc12` [CPI-1205, N-[(4-methoxy-6-methyl-2-oxo-1H-pyridin-3-yl)methyl]-2-methyl-1-[(1R)-1-[1-(2,2,2-trifluoroethyl)piperidin-4-yl]ethyl]indole-3-carboxamide], the “suppression of murine inducible regulatory T cell (iTreg) differentiation” value in data set [1] is listed as “most striking effect”. The “cytotoxicity of human effector T cells” value in data set [2] is given as “enhanced”. Further, in the data set on MB49 tumor, the survival result is recorded as “No significant difference” and the tumor growth result is listed as “No significant difference”.
